Earlier results in US20040121305A1, “Generation of efficacy, toxicity and disease signatures and methods of use thereof” (priority 2002, published 2004).

Conditions: known toxins to be used for toxicity signature generation; organs known to be targeted

Row | Molecule | Target organ/organ system
1 | Clc1cc(Cl)c(-c2cc(Cl)c(Cl)cc2Cl)cc1Cl [2,2′,4,4′,5,5′-hexachlorobiphenyl] | liver
2 | Clc1cc2c(cc1Cl)Oc1cc(Cl)c(Cl)cc1O2 [2,3,7,8-tetrachlorodibenzo-p-dioxin] | liver
3 | NCCBr [2-bromoethylamine (BEA), 2-bromoethylamine] | kidney
4 | Cc1ccc2cc3c(ccc4ccccc43)c3c2c1CC3 [3-methylcholanthrene] | liver
5 | Nc1ccc(O)cc1 [4-aminophenol (PAP), 4-aminophenol] | kidney
6 | Cc1cccc(Nc2cc(Cl)nc(SCC(=O)O)n2)c1C [Wy-16,463] | liver
7 | CC(=O)Nc1ccc(O)cc1 [acetaminophen] | kidney
8 | C=CCO [allyl alcohol] | liver
9 | C[C@@H]1[C@H](O)[C@@H](C)/C=C/C=C/C=C/C=C/C=C/C=C/C=C/[C@H](O[C@@H]2O[C@H](C)[C@@H](O)[C@H](N)[C@@H]2O)C[C@@H]2O[C@](O)(C[C@@H](O)C[C@@H](O)[C@H](O)CC[C@@H](O)C[C@@H](O)CC(=O)O[C@H]1C)C[C@H](O)[C@H]2C(=O)O [amphotericin B] | blood; cardiovascular system; kidney; liver
10 | [AsH3] [arsenic] | liver
11 | CC(=O)Oc1ccccc1C(=O)O [aspirin] | cardiovascular system; kidney
12 | COc1ccc(CCN2CCC(Nc3nc4ccccc4n3Cc3ccc(F)cc3)CC2)cc1 [astemizole] | cardiovascular system
13 | c1ccccc1 [benzene] | blood
14 | [Cd] [cadmium] | kidney; liver; nervous system; respiratory system
15 | NC(=O)N1c2ccccc2C=Cc2ccccc21 [carbamezipine] | blood; liver; reproductive system
16 | CC(C)(Oc1ccc(C2CC2(Cl)Cl)cc1)C(=O)O (stereo not drawn) [ciprofibrate (cipro), ciprofibrate] | liver
17 | CCOC(=O)C(C)(C)Oc1ccc(Cl)cc1 [clofibrate] | muscle
18 | [Cl][Co][Cl] [cobalt chloride] | liver
19 | CCN(CC)N=O [diethylntrosamine] | liver
20 | CNNC [dimethylhydrazine (DMH), dimethylhydrazine] | liver
21 | Cc1ccc(C)c(OCCCC(C)(C)C(=O)O)c1 [gamfibrozil] | muscle
22 | Nc1nc(O)c2ncn(COC(CO)CO)c2n1 [ganciclovir] | blood; liver
23 | ClC(Cl)=C(Cl)C(Cl)=C(Cl)Cl [hexachloro-1,3-butediene (HCBD), hexachloro-1,3-butediene] | kidney

Row | Molecule | Target organ/organ system
24 | NN [hydrazine] | liver
25 | CC(=O)[O-].CC(=O)[O-].[Pb+2] [lead acetate (PbAc), lead acetate] | liver, kidney
26 | [Cl][Hg][Cl] [mercury(II) chloride (HgCl2), mercury(II) chloride] | kidney
27 | CN(C)CCN(Cc1cccs1)c1ccccn1 [methapyrilene] | liver
28 | CN(Cc1cnc2nc(N)nc(N)c2n1)c1ccc(C(=O)N[C@@H](CCC(=O)O)C(=O)O)cc1 [methotrexate] | liver
29 | [N]=O [nitric oxide] | respiratory system; cardiovascular
30 | Cc1nccn1CC1CCc2c(c3ccccc3n2C)C1=O (stereo not drawn) [ondansetron] | liver
31 | NNc1ccccc1 [phenylhydrazine (phenylhyrzn), phenylhydrazine] | liver
32 | CC[C@H](C)C(=O)O[C@H]1C[C@H](O)C=C2C=C[C@H](C)[C@H](CC[C@@H](O)C[C@@H](O)CC(=O)O)[C@H]21 [pravastatin] | cardiovascular system; liver
33 | COc1cc(N)c(Cl)cc1C(=O)NC1CCN(CCCOc2ccc(F)cc2)CC1OC (stereo not drawn) [propulsid] | cardiovascular system
34 | CN(C)c1ncnc2c1ncn2[C@@H]1O[C@H](CO)[C@@H](N)[C@H]1O [puromycin aminonucleoside (PAN), puromycin aminonucleoside] | liver; kidney
35 | [F-].[Na+] [sodium fluoride (NaF), sodium fluoride] | liver
36 | CC(=N)S [thioacetamide] | liver; kidney
37 | Cc1cccc(C)c1NC(=O)C(C)N (stereo not drawn) [tocainidine] | cardiovascular system
38 | Cc1c(C)c2c(c(C)c1O)CCC(C)(COc1ccc(CC3SC(=O)NC3=O)cc1)O2 (stereo not drawn) [troglitazone] | liver
39 | CCCC(CCC)C(=O)O [valproic acid] | reproductive system
40 | CC[C@]1(O)C[C@H]2CN(CCc3c([nH]c4ccccc34)[C@@](C(=O)OC)(c3cc4c(cc3OC)N(C=O)[C@H]3[C@@](O)(C(=O)OC)[C@H](OC(C)=O)[C@]5(CC)C=CCN6CC[C@]43[C@@H]65)C2)C1 [vincristine] | nervous system; cardiovascular system; reproductive
41 | Cc1cn([C@H]2C[C@H](N=[N+]=[N-])[C@@H](CO)O2)c(=O)[nH]c1=O [zidovudine (AZT), zidovudine] | blood; liver
42 | S=C=Nc1cccc2ccccc12 [α-naphthyl isothiocyanate (ANIT), α-naphthyl isothiocyanate] | liver
43 | O=c1cc(-c2ccccc2)oc2ccc3ccccc3c12 [β-naphthoflavone (BNF), β-naphthoflavone] | liver
44 | corvastatin | cardiovascular system; liver
45 | interleukin-6 (IL-6): interleukin-6, listed as a known toxin targeting the liver | liver
